{
  "source": "patent US12642794B2",
  "about": "“Dose regimens for use of LY3154207 in the treatment of dopaminergic CNS disorders” (Eli Lilly and Company, priority 2018, dated 2026)",
  "format_in_all_cases": "in vivo, human",
  "key": {"[1]": {"test": "HBEB plasma pharmacokinetics", "description": "Dose dependent activating adverse events were also observed in a single ascending dose study. To determine the effects of a single dose of LY3154207 was studied on wakefulness as measured by the multiple sleep latency test (MSLT) in sleep deprived healthy male subjects. HBEB was a Phase 1, single-dose, randomized, placebo-controlled, 4-period, incomplete crossover study in sleep-deprived healthy male subjects (n=17). Subjects were randomized to receive a single dose of either placebo, LY3154207 15, 30, or 75 mg (double-blind), or modafinil (open-label control). In each period, subjects were sleep deprived for approximately 26 hours before dosing and approximately 12 hours post-dose. MSLT was conducted every 2 hours until 10 hours post-dose. Analysis based on mixed-model repeated measures included treatment, period, time, and the treatment-by-time interaction as fixed effects, and subject as a random effect: overall sleep latency was the average of the 4 post-dose sleep latencies. All subjects are randomized to receive 4 out of 5 available single dose treatments (15, 30, 75 mg LY3154207, placebo or modafanil 200 mg) with all subjects receiving placebo. The washout period is at least 7 days. MSLT is the primary assessment of wakefulness. Secondary outcomes include the Karolinska Sleepiness Scale (KSS), EEG and a simple reaction performance task. […]"}, "[2]": {"system": "sleep-deprived healthy male subjects", "test": "HBEB sleep latency study: multiple sleep latency test (MSLT), Karolinska Sleepiness Scale", "details": "for effect on wakefulness / sleep latency: single doses 15 mg to 75 mg", "description": "FIG. 2: HBEB, a Phase 1, single-dose, randomized, placebo-controlled, 4-period, incomplete crossover study in sleep-deprived healthy male subjects (n=17). Effects of a single dose of LY3154207 on wakefulness as measured by the multiple sleep latency test (MSLT) in sleep deprived healthy male subjects. Sleep latency is time from start of MSLT to first detection of sleep (minutes). […] CI=confidence interval: LS-least squares: MSLT=multiple sleep latency test.\nDose dependent activating adverse events were also observed in a single ascending dose study. To determine the effects of a single dose of LY3154207 was studied on wakefulness as measured by the multiple sleep latency test (MSLT) in sleep deprived healthy male subjects. HBEB was a Phase 1, single-dose, randomized, placebo-controlled, 4-period, incomplete crossover study in sleep-deprived healthy male subjects (n=17). Subjects were randomized to receive a single dose of either placebo, LY3154207 15, 30, or 75 mg (double-blind), or modafinil (open-label control). In each period, subjects were sleep deprived for approximately 26 hours before dosing and approximately 12 hours post-dose. MSLT was conducted every 2 hours until 10 hours post-dose. Analysis based on mixed-model repeated measures included treatment, period, time, and the treatment-by-time interaction as fixed effects, and subject as a random effect: overall sleep latency was the average of the 4 post-dose sleep latencies. All subjects are randomized to receive 4 out of 5 available single dose treatments (15, 30, 75 mg LY3154207, placebo or modafanil 200 mg) with all subjects receiving placebo. The washout period is at least 7 days. MSLT is the primary assessment of wakefulness. Secondary outcomes include the Karolinska Sleepiness Scale (KSS), EEG and a simple reaction performance task. Blood samples are collected to measure plasma concentrations of LY3154207 and modafinil. Seventeen subjects are enrolled and received at least one dose of study drug with sixteen subjects completing all 4 periods of the trial. A dose dependent increase in MSLT is observed with least square means (95% CI) difference compared to placebo of 5.2 minutes (3.3,7.1) for 75 mg, 3.2 minutes (1.4, 5.1) for 30 mg, 1.3 minutes (−0.6, 3.2) for 15 mg, as shown in FIG. 2. […] PK is linear with a Cmax and t1/2 of approximately 3 and 9 hours across the dose range."}, "[3]": {"system": "healthy subjects", "test": "HBEC Part A multiple ascending dose study: TEAEs, vital signs, tolerability", "method": "FIG. 3: Design of the study HBEC, a multiple ascending dose study of LY3154207, a randomized, double-blind, placebo-controlled, multiple ascending dose, parallel-group study, of healthy subjects (Part A) and participants with PD (Part B) who received once-daily doses of LY3154207 (15, 30, 75, or 150 mg in Part A and up to 75 mg in Part B) or placebo for 14 days. aEach ascending dose cohort commenced only after review of the safety data to at least Day 7 from the previous cohort. bParticipants with PD in Cohort 6 received titrated doses to determine the effect of this dosing schedule (i.e., Days 1-3:15 mg: Days 4-6:30 mg; and Days 7-14:75 mg) on cardiovascular effects. Note: All cohorts were dosed for 14 days. CRU=clinical research unit: LY=LY3154207; PBO=placebo: PD=Parkinson's disease: R=randomized.\nIn this randomized, double-blind, placebo-controlled, multiple ascending dose, parallel-group study, HBEC, healthy subjects (Part A) and participants with PD (Part B) received once-daily doses of LY3154207 (15, 30, 75, or 150 mg in Part A and up to 75 mg in Part B) or placebo for 14 days, as illustrated in FIG. 3.\nStudy outcomes included 24-hour ambulatory blood pressure monitoring (ABPM), treatment-emergent adverse events (TEAEs), and PK assessments in both healthy subjects and participants with PD, as well as Movement Disorder Society-United Parkinson's Disease Rating Scale (MDS-UPDRS) assessments to evaluate the impact of LY3154207 on motor function in participants with PD. The objective was to explore the safety, tolerability, and pharmacokinetics (PK) of multiple oral daily dosing of LY3154207 in healthy subjects (Part A) and in participants with PD (Part B)."}, "[4]": {"details": "healthy subjects, LY 15 mg once daily for 14 days (N = 9)"}, "[5]": {"details": "healthy subjects, LY 30 mg once daily for 14 days (N = 9)"}, "[6]": {"details": "healthy subjects, LY 75 mg once daily for 14 days (N = 9)"}, "[7]": {"details": "healthy subjects, LY 150 mg once daily for 14 days (N = 9)"}, "[8]": {"details": "healthy subjects, primarily at the 150 mg dose"}},
  "note": "“Also recorded” adds a separate entry of the source.",
  "data": [
    {"smiles": "C[C@H]1c2cccc(CCC(C)(C)O)c2C[C@H](CO)N1C(=O)Cc1c(Cl)cccc1Cl", "note": "[LY3154207]", "values": [
      {"measurement": "linearity of PK", "setting": "[1]", "value": "linear"},
      {"measurement": "half-life", "setting": "[1]; male, human, plasma, across the dose range", "value": "~9", "unit": "h"},
      {"measurement": "MSLT sleep latency, least square means difference compared to placebo", "setting": "[2]; single dose 15 mg", "value": 1.3, "unit": "min"},
      {"measurement": "MSLT sleep latency, least square means difference compared to placebo", "setting": "[2]; single dose 30 mg", "value": 3.2, "unit": "min"},
      {"measurement": "MSLT sleep latency, least square means difference compared to placebo", "setting": "[2]; single dose 75 mg", "value": 5.2, "unit": "min"},
      {"measurement": "effect on wakefulness / sleep latency", "setting": "[2]", "value": "improves wakefulness in a dose dependent manner; also recorded: linear and dose-dependent effect on sleep latency"},
      {"measurement": "effect on wakefulness / sleep latency", "setting": "[2]; listed as LY3144207", "value": "increases wakefulness"},
      {"measurement": "alertness measured by the Karolinska sleepiness scale", "setting": "[2]; single doses 15, 30, 75 mg", "value": "dose-dependent increase in alertness"},
      {"measurement": "incidence of TEAEs following multiple dosing", "setting": "[3]; healthy subjects", "value": "dose-dependent increase"},
      {"measurement": "severe or serious TEAEs", "setting": "[3]; healthy subjects", "value": "no severe or serious TEAEs"},
      {"measurement": "Number of TEAEs", "setting": "[3]; [4]", "value": 6},
      {"measurement": "Number of TEAEs, Mild", "setting": "[3]; [4]", "value": 6},
      {"measurement": "Number of TEAEs, Moderate", "setting": "[3]; [4]", "value": 0},
      {"measurement": "Subjects with ≥1 TEAE, (%)", "setting": "[3]; [4]", "value": "(44.4) %"},
      {"measurement": "Number of TEAEs", "setting": "[3]; [5]", "value": 5},
      {"measurement": "Number of TEAEs, Mild", "setting": "[3]; [5]", "value": 5},
      {"measurement": "Number of TEAEs, Moderate", "setting": "[3]; [5]", "value": 0},
      {"measurement": "Subjects with ≥1 TEAE, (%)", "setting": "[3]; [5]", "value": "(55.6) %"},
      {"measurement": "Number of TEAEs", "setting": "[3]; [6]", "value": 6},
      {"measurement": "Number of TEAEs, Mild", "setting": "[3]; [6]", "value": 6},
      {"measurement": "Number of TEAEs, Moderate", "setting": "[3]; [6]", "value": 0},
      {"measurement": "Subjects with ≥1 TEAE, (%)", "setting": "[3]; [6]", "value": "(33.3) %"},
      {"measurement": "Number of TEAEs", "setting": "[3]; [7]", "value": 35},
      {"measurement": "Number of TEAEs, Mild", "setting": "[3]; [7]", "value": 35},
      {"measurement": "Number of TEAEs, Moderate", "setting": "[3]; [7]", "value": 0},
      {"measurement": "Subjects with ≥1 TEAE, (%)", "setting": "[3]; [7]", "value": "(88.9) %"},
      {"measurement": "dizziness, treatment-related AE", "setting": "[3]; [8]", "value": 3, "unit": "n"},
      {"measurement": "insomnia, treatment-related AE", "setting": "[3]; [8]", "value": 4, "unit": "n"},
      {"measurement": "nausea, treatment-related AE", "setting": "[3]; [8]", "value": 2, "unit": "n"},
      {"measurement": "nervousness, treatment-related AE", "setting": "[3]; [8]", "value": 3, "unit": "n"},
      {"measurement": "palpitations, treatment-related AE", "setting": "[3]; [8]", "value": 3, "unit": "n"},
      {"measurement": "course of the initial increase in SBP, DBP, and pulse rate", "setting": "[3]; healthy subjects, repeated dosing", "value": "showed accommodation with repeated dosing"},
      {"measurement": "tolerability of multiple once-daily doses", "setting": "[3]; up to 150 mg in healthy subjects", "value": "well tolerated"}
    ]}
  ]
}
